Measurements published in doi:10.1101/2025.03.14.643404, “A Bivalent Molecular Glue Linking Lysine Acetyltransferases to Oncogene-induced Cell Death” (bioRxiv, 2025).

Target: T1, BCL6 (Homo sapiens, UniProt P41182+Q09472+Q92793)
T1 construct: endogenous in cells; host or cells: SUDHL5
Experiment: Acetyl-lysine IP and western blot for BCL6 in SUDHL5
Format: cell-based
Conditions: SUDHL5, 1 hour
Procedure: Cells were plated at 1M/mL and treated with compound or DMSO at indicated timepoints and doses. Cells were harvested on ice, counted, normalized by count, and washed 1X in PBS containing compound or DMSO. For only BCL6 immunoprecipitation, compound or DMSO was maintained in nuclear preparation buffers at identical concentration to cell treatment throughout. Nuclei were prepared by incubation in Buffer A (25 mM HEPES pH 7.5, 25 mM KCl, 0.05 mM EDTA, 1mM MgCl2, 10% glycerol, 0.1% NP-40) supplemented with protease inhibitors (1 mM PMSF, ~[…] pepstatin, aprotinin, and leupeptin) at 4 °C for 7 mins. Nuclear preparation was confirmed by Trypan blue staining and nuclei were pelleted by centrifugation for 5 min at 500g at 4 °C. Pelleted nuclei were resuspended in IP Buffer (25 mM HEPES pH 7.5, 150mM KCl, 0.05 mM EDTA, 1 mM MgCl2, 10% glycerol, 0.1% NP-40) supplemented with protease inhibitors and 1 μL/250 units benzonase (Sigma E1014). Chromatin was removed by incubation with rotation for 30 min and nuclei sheared using a 27-gauge needle exactly five times. […]
Cells were plated at 1M/mL and treated with drug at indicated timepoints and doses. […] After 10 min centrifugation at 14,000g and 4 °C, the supernatant was collected and protein concentration was measured by Bradford. […] ImageStudio (Licor) was used for blot imaging and quantification.

T1 sequence (Q09472 2-2414 limits assumed, other chains not shown): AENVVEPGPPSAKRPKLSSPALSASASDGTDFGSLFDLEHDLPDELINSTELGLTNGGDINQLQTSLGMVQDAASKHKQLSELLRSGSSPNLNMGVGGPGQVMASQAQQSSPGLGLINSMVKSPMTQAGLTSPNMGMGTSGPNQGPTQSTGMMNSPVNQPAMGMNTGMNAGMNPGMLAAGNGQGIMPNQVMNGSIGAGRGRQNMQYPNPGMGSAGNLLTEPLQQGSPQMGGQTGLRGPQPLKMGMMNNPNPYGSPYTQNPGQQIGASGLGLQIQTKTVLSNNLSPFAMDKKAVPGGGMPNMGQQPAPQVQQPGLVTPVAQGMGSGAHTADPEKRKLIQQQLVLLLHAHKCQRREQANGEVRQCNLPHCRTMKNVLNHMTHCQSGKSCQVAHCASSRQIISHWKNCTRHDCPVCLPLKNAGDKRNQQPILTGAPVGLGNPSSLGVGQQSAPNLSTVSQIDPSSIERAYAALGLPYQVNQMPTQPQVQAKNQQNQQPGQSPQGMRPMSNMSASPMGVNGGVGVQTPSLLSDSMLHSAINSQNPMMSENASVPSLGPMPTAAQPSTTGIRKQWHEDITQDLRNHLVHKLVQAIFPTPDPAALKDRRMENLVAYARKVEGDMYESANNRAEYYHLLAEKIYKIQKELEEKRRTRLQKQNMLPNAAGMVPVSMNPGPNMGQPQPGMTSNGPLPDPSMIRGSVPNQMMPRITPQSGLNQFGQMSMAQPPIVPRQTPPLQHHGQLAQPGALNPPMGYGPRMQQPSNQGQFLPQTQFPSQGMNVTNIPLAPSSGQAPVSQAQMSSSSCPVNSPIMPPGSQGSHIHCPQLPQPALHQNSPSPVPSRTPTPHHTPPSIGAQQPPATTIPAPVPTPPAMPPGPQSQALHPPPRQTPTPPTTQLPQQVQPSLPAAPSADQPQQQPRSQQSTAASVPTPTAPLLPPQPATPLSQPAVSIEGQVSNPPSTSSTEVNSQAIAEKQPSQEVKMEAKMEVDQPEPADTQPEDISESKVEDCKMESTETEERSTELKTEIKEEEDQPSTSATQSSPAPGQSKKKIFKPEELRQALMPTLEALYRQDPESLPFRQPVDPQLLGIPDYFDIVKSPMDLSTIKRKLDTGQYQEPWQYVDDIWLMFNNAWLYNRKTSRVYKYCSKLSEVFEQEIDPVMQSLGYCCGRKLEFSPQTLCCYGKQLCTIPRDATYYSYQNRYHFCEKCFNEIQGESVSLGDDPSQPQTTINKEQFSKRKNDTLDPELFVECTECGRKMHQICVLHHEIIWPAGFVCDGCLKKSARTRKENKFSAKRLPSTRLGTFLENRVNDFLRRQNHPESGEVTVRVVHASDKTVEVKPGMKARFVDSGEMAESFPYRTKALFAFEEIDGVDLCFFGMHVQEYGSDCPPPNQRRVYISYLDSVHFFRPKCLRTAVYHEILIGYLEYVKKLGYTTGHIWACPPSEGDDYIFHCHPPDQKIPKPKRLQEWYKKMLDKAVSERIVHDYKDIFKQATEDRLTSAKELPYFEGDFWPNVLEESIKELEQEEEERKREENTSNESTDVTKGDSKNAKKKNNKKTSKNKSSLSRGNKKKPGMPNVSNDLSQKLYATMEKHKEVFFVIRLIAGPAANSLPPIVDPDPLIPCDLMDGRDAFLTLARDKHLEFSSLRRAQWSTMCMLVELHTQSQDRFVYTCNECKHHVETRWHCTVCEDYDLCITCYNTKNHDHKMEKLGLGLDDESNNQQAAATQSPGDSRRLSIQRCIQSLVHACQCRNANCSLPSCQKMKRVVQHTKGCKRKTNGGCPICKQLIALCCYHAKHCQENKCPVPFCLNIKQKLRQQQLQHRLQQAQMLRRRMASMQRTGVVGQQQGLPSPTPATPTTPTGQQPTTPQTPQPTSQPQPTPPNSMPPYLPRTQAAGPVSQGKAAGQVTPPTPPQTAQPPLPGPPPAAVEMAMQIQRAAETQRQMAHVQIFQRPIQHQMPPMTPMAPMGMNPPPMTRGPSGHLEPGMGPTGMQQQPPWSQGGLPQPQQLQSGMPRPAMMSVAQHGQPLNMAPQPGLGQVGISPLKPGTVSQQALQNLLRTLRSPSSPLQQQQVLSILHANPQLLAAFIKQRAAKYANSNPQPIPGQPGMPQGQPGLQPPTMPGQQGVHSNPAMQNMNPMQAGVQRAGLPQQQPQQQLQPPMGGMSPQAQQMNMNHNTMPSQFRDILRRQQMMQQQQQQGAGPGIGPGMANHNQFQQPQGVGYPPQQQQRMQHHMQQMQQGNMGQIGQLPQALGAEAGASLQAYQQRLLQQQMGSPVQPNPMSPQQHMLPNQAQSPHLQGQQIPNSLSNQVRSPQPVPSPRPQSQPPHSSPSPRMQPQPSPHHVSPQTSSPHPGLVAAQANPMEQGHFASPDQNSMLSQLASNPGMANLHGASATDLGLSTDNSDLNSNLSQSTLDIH
T1 sequence (Q92793 2-2442 limits assumed, other chains not shown): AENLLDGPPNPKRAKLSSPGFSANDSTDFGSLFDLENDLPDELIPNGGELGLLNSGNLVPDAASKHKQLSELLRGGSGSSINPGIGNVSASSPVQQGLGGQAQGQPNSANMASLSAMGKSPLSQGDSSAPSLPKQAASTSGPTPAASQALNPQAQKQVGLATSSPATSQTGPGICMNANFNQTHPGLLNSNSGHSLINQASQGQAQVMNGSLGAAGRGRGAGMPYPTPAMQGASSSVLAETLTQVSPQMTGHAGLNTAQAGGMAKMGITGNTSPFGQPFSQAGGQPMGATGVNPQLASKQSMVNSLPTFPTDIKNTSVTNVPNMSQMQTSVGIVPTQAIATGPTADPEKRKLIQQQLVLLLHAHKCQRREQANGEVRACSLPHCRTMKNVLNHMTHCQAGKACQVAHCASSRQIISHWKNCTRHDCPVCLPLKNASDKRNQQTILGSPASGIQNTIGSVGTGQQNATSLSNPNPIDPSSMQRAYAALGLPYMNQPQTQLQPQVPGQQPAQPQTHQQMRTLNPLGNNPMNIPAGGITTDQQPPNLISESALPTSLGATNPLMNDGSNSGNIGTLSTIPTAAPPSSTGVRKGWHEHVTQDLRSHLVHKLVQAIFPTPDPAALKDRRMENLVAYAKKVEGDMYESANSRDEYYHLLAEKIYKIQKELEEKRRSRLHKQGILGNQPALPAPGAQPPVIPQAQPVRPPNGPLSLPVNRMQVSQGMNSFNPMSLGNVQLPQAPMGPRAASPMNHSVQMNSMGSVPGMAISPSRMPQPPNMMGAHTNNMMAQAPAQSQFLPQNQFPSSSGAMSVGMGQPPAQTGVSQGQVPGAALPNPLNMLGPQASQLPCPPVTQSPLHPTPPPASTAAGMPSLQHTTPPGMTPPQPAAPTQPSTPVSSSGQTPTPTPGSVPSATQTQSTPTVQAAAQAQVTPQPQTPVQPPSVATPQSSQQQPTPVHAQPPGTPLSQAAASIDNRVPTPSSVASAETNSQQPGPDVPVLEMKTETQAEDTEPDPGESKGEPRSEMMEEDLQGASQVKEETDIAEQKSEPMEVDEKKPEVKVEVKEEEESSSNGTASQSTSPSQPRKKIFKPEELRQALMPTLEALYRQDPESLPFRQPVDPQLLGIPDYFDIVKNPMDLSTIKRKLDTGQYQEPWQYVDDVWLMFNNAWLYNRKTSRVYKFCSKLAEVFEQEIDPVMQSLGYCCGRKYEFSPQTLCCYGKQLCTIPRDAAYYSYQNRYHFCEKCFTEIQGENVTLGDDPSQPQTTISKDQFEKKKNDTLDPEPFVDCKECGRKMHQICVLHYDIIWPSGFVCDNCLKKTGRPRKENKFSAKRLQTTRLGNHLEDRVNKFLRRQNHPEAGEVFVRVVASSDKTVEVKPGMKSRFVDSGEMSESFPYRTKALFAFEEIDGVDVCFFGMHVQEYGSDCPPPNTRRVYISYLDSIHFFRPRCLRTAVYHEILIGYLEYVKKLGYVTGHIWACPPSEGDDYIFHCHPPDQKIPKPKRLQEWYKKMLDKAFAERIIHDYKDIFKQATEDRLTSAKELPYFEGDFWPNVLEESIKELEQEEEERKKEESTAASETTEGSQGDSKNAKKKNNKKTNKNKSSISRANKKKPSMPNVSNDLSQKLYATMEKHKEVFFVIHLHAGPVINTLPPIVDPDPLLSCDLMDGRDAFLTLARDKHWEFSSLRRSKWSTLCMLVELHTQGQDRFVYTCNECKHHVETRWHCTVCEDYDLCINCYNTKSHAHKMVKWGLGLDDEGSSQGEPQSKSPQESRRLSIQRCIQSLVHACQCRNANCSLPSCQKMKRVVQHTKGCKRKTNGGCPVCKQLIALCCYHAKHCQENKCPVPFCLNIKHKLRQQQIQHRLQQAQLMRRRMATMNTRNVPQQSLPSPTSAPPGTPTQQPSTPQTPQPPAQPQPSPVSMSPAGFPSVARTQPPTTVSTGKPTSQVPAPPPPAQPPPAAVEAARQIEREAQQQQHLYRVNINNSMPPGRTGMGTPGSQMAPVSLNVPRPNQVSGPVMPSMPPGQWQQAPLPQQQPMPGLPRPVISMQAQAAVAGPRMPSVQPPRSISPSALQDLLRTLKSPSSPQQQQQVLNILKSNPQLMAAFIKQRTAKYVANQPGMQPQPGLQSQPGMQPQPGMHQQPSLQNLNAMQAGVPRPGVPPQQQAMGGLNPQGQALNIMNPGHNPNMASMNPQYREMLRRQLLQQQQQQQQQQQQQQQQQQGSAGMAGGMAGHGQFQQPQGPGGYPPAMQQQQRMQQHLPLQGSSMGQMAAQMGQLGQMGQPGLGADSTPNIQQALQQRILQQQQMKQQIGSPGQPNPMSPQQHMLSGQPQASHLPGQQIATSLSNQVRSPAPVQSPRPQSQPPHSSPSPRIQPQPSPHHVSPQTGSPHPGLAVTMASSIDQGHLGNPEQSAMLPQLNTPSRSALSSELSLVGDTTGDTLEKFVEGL

Compound: CNC(=O)COc1cc2cc(Nc3nc(N4CCC(C(=O)N5CCN(CCC(=O)N6CCC(n7nc(N8CCCc9cc(-c%10cnn(C)c%10)c(C(F)F)cc98)c8c7CCN(C(=O)NC)C8)CC6)CC5)CC4)ncc3Cl)cc(OC)c2n(C)c1=O [TCIP3]
- concentration at which increase of acetylated BCL6 begins: 1 nM
